Laboratory results reported in PMC3480357, “Fragment-Hopping-Based Discovery of a Novel Chemical Series of Proto-Oncogene PIM-1 Kinase Inhibitors” (PLoS ONE, 2012).
pIC50: −log10 of the molar value. Blank lines part the entries; values can stand above or below the molecule they belong to.

Tests used:
PIM-3 = PIM-3 (Homo sapiens, UniProt Q86V86); parameters: method as in PMID 21051136; conditions: cited from earlier work
AKT1 = AKT1 (Homo sapiens, UniProt P31749); parameters: method as in PMID 21051136; conditions: 10 µM; average of two data points; cited from earlier work
ARK5 = target: T1, ARK5 (Homo sapiens, UniProt O60285); parameters: method as in PMID 21051136; conditions: 10 µM; average of two data points; cited from earlier work
T1 sequence (O60285 1-661): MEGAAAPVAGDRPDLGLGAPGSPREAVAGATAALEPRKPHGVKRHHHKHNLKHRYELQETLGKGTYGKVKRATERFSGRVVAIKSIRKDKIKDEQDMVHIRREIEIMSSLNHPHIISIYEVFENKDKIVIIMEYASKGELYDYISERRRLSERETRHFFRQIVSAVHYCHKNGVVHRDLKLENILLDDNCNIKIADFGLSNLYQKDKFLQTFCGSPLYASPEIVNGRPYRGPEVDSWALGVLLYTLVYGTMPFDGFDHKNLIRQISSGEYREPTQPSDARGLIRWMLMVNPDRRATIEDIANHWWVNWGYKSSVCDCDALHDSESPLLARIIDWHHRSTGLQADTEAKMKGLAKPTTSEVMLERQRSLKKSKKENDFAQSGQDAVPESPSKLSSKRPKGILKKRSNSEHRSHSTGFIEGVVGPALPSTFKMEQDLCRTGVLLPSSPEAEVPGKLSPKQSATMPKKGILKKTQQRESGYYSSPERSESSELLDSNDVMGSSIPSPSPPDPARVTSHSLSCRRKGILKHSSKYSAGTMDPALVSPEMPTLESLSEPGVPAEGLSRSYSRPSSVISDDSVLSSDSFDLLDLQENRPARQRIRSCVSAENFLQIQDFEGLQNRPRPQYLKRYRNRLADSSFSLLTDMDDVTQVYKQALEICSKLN

B-RAF-V600E = B-RAF-V600E (Homo sapiens, UniProt P15056, V600E); parameters: method as in PMID 21051136; conditions: 10 µM; average of two data points; cited from earlier work
CK1-α1 = CK1-α1 (Homo sapiens, UniProt P48729); parameters: method as in PMID 21051136; conditions: 10 µM; average of two data points; cited from earlier work
CK1-α1, sequence (P48729 whole entry): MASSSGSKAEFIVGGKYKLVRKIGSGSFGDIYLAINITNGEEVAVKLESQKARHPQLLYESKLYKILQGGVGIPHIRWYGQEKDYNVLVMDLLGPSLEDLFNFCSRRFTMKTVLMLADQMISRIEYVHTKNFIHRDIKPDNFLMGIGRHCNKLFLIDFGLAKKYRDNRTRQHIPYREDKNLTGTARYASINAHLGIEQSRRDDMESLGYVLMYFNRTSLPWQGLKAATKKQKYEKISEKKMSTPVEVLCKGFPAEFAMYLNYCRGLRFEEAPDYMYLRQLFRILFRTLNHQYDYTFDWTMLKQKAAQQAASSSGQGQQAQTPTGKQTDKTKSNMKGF

IGF1-R = IGF1-R (Homo sapiens, UniProt P08069); parameters: method as in PMID 21051136; conditions: 10 µM; average of two data points; cited from earlier work
IGF1-R, sequence (P08069 31-1367, species assumed): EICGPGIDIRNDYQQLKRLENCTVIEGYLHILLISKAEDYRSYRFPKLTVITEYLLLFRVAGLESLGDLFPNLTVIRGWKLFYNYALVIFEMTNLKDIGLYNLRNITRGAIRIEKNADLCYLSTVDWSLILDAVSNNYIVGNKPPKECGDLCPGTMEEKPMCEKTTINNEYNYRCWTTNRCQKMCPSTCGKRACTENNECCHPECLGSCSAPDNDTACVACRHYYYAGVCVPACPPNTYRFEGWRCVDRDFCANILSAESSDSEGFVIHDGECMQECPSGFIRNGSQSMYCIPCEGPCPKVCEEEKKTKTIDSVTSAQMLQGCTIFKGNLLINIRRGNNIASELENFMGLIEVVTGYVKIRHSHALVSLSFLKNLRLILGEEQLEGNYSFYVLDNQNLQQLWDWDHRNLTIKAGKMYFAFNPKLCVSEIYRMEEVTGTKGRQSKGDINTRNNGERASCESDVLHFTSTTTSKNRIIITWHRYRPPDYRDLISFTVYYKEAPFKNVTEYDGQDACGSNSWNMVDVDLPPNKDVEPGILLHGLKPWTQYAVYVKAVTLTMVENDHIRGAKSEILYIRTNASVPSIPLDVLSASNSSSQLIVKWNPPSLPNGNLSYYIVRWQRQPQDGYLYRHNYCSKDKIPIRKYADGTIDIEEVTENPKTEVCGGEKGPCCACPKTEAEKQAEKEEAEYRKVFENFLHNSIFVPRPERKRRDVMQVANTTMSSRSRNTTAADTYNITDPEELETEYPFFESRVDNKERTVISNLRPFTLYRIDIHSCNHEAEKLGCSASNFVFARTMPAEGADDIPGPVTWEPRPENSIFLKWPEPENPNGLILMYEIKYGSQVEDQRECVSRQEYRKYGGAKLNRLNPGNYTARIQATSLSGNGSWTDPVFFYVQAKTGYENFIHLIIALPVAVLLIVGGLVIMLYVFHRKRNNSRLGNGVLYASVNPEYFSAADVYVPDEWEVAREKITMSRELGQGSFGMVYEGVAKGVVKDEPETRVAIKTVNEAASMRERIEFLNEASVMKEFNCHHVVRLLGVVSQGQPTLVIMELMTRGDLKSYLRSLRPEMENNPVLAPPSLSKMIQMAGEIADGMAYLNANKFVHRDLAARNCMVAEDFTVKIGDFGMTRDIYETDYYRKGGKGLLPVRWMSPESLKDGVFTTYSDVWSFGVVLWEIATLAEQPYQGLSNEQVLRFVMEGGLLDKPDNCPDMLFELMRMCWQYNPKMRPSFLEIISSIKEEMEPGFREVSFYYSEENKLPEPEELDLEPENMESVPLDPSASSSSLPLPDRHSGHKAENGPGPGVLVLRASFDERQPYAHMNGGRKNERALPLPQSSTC

JAK2 = JAK2 (Homo sapiens, UniProt O60674); parameters: method as in PMID 21051136; conditions: 10 µM; average of two data points; cited from earlier work
JAK2, sequence (O60674 whole entry, species assumed): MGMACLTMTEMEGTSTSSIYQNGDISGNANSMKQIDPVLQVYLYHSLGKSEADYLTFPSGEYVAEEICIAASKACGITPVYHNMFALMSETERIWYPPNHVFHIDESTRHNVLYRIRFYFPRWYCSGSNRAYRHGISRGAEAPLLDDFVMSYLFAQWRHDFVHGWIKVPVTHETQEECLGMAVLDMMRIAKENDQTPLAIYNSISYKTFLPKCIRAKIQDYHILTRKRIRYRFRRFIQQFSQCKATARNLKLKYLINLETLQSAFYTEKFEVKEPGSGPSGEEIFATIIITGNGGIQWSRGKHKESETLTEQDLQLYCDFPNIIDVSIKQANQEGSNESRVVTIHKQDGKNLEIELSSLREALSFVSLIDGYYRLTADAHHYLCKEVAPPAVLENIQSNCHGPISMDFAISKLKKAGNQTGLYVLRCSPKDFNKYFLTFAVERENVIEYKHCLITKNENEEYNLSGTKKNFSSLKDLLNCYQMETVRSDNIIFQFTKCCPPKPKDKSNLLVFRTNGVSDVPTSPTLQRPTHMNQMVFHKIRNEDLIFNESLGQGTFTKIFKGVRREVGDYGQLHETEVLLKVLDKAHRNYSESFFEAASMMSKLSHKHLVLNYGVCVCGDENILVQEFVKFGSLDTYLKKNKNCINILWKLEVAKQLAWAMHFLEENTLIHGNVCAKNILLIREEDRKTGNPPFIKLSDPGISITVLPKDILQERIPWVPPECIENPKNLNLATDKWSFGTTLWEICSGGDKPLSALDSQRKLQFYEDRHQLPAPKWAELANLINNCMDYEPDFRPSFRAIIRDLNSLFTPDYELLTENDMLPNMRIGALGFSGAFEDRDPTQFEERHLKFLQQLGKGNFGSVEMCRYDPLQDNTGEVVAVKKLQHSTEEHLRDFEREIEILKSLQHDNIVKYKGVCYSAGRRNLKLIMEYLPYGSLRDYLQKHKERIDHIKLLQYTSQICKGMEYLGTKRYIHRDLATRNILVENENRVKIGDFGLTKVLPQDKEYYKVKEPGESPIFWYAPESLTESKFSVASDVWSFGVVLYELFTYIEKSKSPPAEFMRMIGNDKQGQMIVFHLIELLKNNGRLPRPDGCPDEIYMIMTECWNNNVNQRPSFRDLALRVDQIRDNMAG

MET = MET (Homo sapiens, UniProt P08581); parameters: method as in PMID 21051136; conditions: 10 µM; average of two data points; cited from earlier work
MET, sequence (P08581 25-1390): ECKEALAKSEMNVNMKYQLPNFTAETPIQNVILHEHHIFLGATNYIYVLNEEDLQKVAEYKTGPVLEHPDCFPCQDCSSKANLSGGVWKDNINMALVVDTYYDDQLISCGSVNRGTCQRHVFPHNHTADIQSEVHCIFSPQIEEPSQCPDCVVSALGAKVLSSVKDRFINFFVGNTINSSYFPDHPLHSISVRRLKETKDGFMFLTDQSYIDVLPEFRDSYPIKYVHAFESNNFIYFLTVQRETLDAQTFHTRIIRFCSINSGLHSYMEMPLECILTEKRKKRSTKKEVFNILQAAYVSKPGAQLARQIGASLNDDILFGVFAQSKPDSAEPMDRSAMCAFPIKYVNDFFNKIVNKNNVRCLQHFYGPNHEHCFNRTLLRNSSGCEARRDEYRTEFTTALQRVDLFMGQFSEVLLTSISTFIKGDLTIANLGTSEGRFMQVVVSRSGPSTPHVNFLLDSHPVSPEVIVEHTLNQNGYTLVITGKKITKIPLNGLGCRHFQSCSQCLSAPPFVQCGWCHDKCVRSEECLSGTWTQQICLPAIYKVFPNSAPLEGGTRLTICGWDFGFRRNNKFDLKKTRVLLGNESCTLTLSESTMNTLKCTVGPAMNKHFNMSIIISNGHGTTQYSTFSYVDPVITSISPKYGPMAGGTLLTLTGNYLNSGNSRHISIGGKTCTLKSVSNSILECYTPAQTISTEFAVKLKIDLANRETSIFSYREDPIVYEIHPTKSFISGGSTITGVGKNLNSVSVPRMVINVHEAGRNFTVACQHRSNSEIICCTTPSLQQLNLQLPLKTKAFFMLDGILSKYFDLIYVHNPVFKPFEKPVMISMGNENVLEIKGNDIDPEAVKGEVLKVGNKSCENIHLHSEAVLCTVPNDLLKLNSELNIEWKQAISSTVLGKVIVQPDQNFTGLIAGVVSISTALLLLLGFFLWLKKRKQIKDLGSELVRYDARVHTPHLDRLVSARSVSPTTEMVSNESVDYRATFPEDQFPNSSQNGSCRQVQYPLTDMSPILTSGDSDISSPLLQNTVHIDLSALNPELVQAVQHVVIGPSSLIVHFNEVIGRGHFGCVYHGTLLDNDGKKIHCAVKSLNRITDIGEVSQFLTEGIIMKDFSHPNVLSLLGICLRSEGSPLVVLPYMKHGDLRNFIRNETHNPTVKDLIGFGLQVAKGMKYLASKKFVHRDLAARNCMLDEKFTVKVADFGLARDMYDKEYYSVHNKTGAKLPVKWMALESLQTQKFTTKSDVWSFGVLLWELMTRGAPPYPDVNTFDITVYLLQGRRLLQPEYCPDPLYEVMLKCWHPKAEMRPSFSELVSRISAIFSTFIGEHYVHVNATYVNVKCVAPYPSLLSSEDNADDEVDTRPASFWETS

PAK1 = PAK1 (Homo sapiens, UniProt Q13153); parameters: method as in PMID 21051136; conditions: 10 µM; average of two data points; cited from earlier work
SGK1 = target: T2, SGK1 (Homo sapiens, UniProt O00141); parameters: method as in PMID 21051136; conditions: 10 µM; average of two data points; cited from earlier work
T2 sequence (O00141 1-431): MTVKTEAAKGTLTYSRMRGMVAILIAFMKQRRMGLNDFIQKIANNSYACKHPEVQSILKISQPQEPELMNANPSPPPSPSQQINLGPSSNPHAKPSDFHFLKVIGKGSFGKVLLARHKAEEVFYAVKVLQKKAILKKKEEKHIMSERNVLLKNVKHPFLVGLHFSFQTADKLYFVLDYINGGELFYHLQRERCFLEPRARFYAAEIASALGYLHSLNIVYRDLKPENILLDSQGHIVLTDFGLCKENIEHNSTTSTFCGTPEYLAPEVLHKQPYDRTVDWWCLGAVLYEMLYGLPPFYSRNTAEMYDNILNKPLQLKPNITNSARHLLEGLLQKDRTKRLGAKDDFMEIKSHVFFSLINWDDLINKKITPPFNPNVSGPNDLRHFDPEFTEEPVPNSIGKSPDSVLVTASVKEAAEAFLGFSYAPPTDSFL

FLT3 = target: T3, FLT3 (Homo sapiens, UniProt P36888); parameters: method as in PMID 21051136; conditions: 10 µM; cited from earlier work
T3 construct: purchased Invitrogen PV3182
T3 sequence (P36888 564-993 limits assumed): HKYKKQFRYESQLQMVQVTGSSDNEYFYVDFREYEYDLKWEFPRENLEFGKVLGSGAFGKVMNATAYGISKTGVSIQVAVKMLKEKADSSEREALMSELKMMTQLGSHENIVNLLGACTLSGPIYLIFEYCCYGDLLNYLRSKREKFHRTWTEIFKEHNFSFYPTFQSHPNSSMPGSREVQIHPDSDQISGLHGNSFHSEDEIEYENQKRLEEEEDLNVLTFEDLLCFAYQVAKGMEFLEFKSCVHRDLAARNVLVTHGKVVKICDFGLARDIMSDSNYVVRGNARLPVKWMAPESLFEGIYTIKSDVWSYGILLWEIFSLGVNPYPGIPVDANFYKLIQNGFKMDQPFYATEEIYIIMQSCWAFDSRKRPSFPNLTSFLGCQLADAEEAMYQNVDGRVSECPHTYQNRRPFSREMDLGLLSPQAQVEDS

[1] = parameters: method as in earlier work; conditions: SuperGen press release; cited from earlier work
INS-R = INS-R (Homo sapiens, UniProt P06213); test: ProQinase kinase panel, % inhibition at fixed concentration; assay type: biochemical
INS-R, sequence (P06213 980-1382 limits assumed, species assumed): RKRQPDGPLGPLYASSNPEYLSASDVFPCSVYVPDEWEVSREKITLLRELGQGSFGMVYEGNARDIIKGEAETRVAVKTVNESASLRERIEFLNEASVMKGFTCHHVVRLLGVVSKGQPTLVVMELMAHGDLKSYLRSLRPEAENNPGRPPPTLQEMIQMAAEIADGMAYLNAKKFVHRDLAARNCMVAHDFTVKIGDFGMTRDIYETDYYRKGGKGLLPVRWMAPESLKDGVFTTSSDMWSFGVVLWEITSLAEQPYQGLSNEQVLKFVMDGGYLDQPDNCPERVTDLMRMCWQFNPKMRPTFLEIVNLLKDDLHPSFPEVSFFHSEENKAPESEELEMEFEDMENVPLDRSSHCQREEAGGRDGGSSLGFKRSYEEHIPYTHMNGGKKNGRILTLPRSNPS
Experimental: (§1) Once compounds 7 and 8 were synthesized, a pairwise comparison was performed to strictly evaluate the real impact of this fragment-hopping where imidazopyridazine is replaced by triazolopyridine.

JNK1 = JNK1 (Homo sapiens, UniProt P45983); test: as above; assay type: biochemical
JNK1, sequence (P45983 whole entry, species assumed): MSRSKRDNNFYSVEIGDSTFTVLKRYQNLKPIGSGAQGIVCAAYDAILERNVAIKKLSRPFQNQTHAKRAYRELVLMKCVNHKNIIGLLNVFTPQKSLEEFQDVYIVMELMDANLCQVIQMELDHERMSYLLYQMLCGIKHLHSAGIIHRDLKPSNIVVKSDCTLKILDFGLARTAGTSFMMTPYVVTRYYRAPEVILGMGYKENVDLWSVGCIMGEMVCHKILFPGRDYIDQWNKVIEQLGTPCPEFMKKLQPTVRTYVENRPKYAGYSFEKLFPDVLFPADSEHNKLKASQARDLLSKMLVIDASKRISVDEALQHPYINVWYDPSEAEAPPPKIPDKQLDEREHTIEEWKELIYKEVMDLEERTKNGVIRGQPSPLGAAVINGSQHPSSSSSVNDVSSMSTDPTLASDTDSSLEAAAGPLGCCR
Experimental: as §1

hERG = hERG (Homo sapiens, UniProt Q12809); test: hERG radioligand binding assay using [3H]-astemizole; conditions: duplicate
[2] = compound 7 vs compound 1, 10 µM

SMILES: Oc1ccc(-c2cnc3ccc(NCc4ccc(F)cc4)nn23)cc1 [Compound 1]
pIC50 (PIM-3): 7.10
AKT1 percentage of inhibition (AKT1): 0%
ARK5 percentage of inhibition (ARK5): 71%
B-RAF-V600E percentage of inhibition (B-RAF-V600E): 54%
CK1-α1 percentage of inhibition (CK1-α1): 33%
IGF1-R percentage of inhibition (IGF1-R): 26%
JAK2 percentage of inhibition (JAK2): 48%
MET percentage of inhibition (MET): 32%
PAK1 percentage of inhibition (PAK1): 7%
SGK1 percentage of inhibition (SGK1): 73%
FLT3 percentage of inhibition (FLT3): more than 90%

SMILES: CN1CCC(CNc2ccc3ncc(-c4cccc(OC(F)(F)F)c4)n3n2)CC1 [Compound 3, reference compound]
cardiac and pharmacokinetic data evaluation in Phase I trial [1]: failed to demonstrate a safe therapeutic window

inhibition at 10 µM (INS-R; inhibitor at 10 µM, average of two data points, read-out: INS-R percentage of inhibition): 32%
inhibition at 10 µM (JNK1; inhibitor at 10 µM, average of two data points, read-out: JNK1 percentage of inhibition): 11%
SMILES: Oc1ccc(-n2nnc3ccc(NCc4ccc(F)cc4)nc32)cc1 [Compound 7, 4-[5-(4-Fluoro-benzylamino)-[1], [2], [3]triazolo[4,5-b]pyridin-3-yl]-phenol]
INS-R improvement in percentage of inhibition (INS-R; [2]): b (This designation indicates that the improvement in percentage of inhibition was equal or greater than 25%)
JNK1 improvement in percentage of inhibition (JNK1; [2]): c (This designation indicates that the improvement in percentage of inhibition was equal or greater than 50%)

SMILES: CN1CCC(CNc2ccc3nnn(-c4cccc(OC(F)(F)F)c4)c3n2)CC1 [Compound 8, (1-Methyl-piperidin-4-ylmethyl)-[3-(3-trifluoromethoxy-phenyl)-3H-[1], [2], [3]triazolo[4,5-b]pyridin-5-yl]-amine]
pIC50 (hERG): 5.27
